Legend:
Staphylococcus aureus = assay: In vitro inhibition of adhesion of S. aureus on a solid support (glass chamber slide), crystal violet staining and automatic counting; format: cell-based; settings: for Nombre de cellules par champ: adhesion to glass slide, mean of three fields ± SD, water control 99 ± 11; for inhibition de l'adhésion (% par rapport au témoin eau): glass slide
Description: Le protocole suivant est mis en oeuvre : • Une préculture de S. aureus issue du laboratoire de bactériologie clinique de l'hôpital de la Timone (CIP 65-8) est réalisée dans du milieu 'Nutrient Broth N° 2' (Oxoid), pendant 12h, à 37°C; • La culture est centrifugée à 9 000 g, pendant 10 min et le culot bactérien est remis en suspension dans un tampon phosphate (PBS); • A partir de cette suspension, une dilution au 1/50 est réalisée dans une solution aqueuse ou une solution aqueuse contenant le composé polyhydroxylé à tester. Il s'agit soit du xylitol, soit du sucrostéarate HLB 16 (SURFHOPE™ C1816); • Les bactéries sont préincubées en présence du composé polyhydroxylé à tester pendant 45 min, à 37 °C; • Le mélange (100 µl) est ensuite déposé dans un puits d'une lame cytologique en verre, de surface fixe (0,8 cm^2) et délimitée par des parois, c'est-à-dire une lame adaptée à la culture cellulaire (Chamber Slide System, Labtek); • Les cultures bactériennes sont ensuite incubées à 37°C, pendant 60 min et ultérieurement rincées délicatement avec de l'eau ultra pure, ce qui permet d'éliminer les bactéries n'ayant pas adhéré à la surface du puits de la lame; • Les bactéries ayant adhéré dans chaque puits sont par la suite colorées par le cristal violet pendant 10 secondes, puis rincées et séchées pendant 12h, à 25°C; • Les bactéries sont enfin observées à l'aide d'un microscope optique, par grossissement x 1000, en immersion, les champs étant parfaitement homogènes; • Un comptage automatique des bactéries dans chaque puits est finalement réalisé à l'aide d'un logiciel approprié.
Selon ce protocole, l'effet des composés polyhydroxylés a été analysé pour l'activité d'inhibition de l'adhésion de S. aureus sur le support solide. Le xylitol à une concentration finale de 0,5% et le sucrostéarate HLB 16 (sucrose monostéarate, SURFHOPE C18-C16) à une concentration finale de 1% ont été testés. Tableau 1 : Effets du xylitol (0,5%) et du sucrostéarate HLB 16 (1%) sur l'adhésion de S. aureus à la surface des lames de verre. Les résultats correspondent à une moyenne du comptage de trois champs, qui est présentée avec l'écart type correspondant.

S. aureus = assay: Ex vivo inhibition of adhesion of S. aureus on human corneocytes (D-Squame discs), crystal violet staining and image counting; format: cell-based, Staphylococcus aureus; settings: for Inhibition de l'adhésion de S. aureus (%) Essai 1 / Inhibition de l'adhésion de S. aureus (%) Essai 2: human corneocytes; for Inhibition de l'adhésion de S. aureus (%) Essai 1: trial 1; for Inhibition de l'adhésion de S. aureus (%) Essai 2: trial 2
Description: Afin de corroborer les résultats obtenus in vitro, un test d'adhésion ex vivo sur des cornéocytes humains a été mis au point d'après la méthode réalisée chez le chien (McEwan et al., 2005).
La souche clinique de S. aureus (CIP 65-8) a été prélevée sur un patient, au sein du laboratoire de bactériologie clinique de l'hôpital de la Timone à Marseille.
La souche de S. aureus est inoculée dans 10 ml de milieu 'Nutrient Broth N° 2' (Oxoid) et incubée sous agitation à 37°C pendant 12 heures. Les bactéries sont collectées par centrifugation et le culot bactérien est remis en suspension dans un tampon phosphate PBS. La population bactérienne est ajustée approximativement à 10^6 CFU/ml avec de l'eau osmosée.
Des zones cibles sont délimitées sur chaque bras d'un volontaire humain. Pour chaque zone, les débris cutanés sont éliminés grâce à 5 « pré-strippings » successifs avec des disques Sellotape™Original (diamètre 22 mm). Les cornéocytes sont ensuite collectés sur chaque zone cible à l'aide de disques adhésifs D-Squame™ (diamètre 22 mm) et d'un applicateur de disque D-Squame réglé à la pression de 150 g/cm^2.
Les disques sont ensuite placés dans des boîtes de Pétri, de diamètre 35 mm. Les disques sont alors recouverts par 0,5 ml d'eau ou 0,5 ml de la solution de S. aureus à 10^6 CFU/ml, contenant le composé polyhydroxylé à tester, à raison de trois zones pour chacun d'entre eux.
Les composés polyhydroxylés testés avec ce protocole expérimental sont : • le xylitol, à une concentration finale de 0,5%; • le sucrose stéarate HLB 16 (sucrose monostéarate, SURFHOPE C1816,), à une concentration finale de 1%, • le sucrose laurate monoester (SURFHOPE C1216), à une concentration finale de 0,1 %, • le polysorbate 60, à une concentration finale de 0,1%, • le polysorbate 60, à une concentration finale de 1%, • le polysorbate 20, à une concentration finale de 0,1%,
Toutes les solutions sont préparées dans de l'eau et mises en contact avec S. aureus à température ambiante 45 min avant le début de l'expérience d'adhésion. Les boites sont ensuite incubées à 37°C pendant 60 min. Les disques sont alors rincés avec de l'eau osmosée, ce qui permet d'éliminer les bactéries n'ayant pas adhéré aux cornéocytes. Les bactéries ayant adhéré aux cornéocytes humains sont alors colorées par du cristal violet oxalaté pendant 10 secondes. Les disques sont enfin rincés avec de l'eau osmosée, placés sur une lame de microscope et séchés à l'air libre pendant 24 h.
Les images des bactéries adhérentes sont acquises à l'aide d'un microscope Olympus BX 53 couplé à une caméra numérique. Les images collectées sont ensuite analysées par le logiciel UTHSCSA Image Tool (Reindeer Graphics Inc.). Le nombre de bactéries par disque est calculé par une moyenne arithmétique de 10 à 12 images, ce qui correspond à la surface d'environ 100 cornéocytes. Les comparaisons entre différentes moyennes sont effectuées avec le logiciel Statgraphics Plus (Manugistics Inc.).

Molecule	effet sur l'adhésion de S. aureus sur les cornéocytes (S. aureus; final concentration 0,1%)	Inhibition de l'adhésion de S. aureus (%) Essai 1 (S. aureus; final concentration 0,1%)	activité inhibitrice (adhésion de S. aureus sur les cornéocytes) (S. aureus; final concentration 1%) [%]	Inhibition de l'adhésion de S. aureus (%) Essai 1 (S. aureus; final concentration 1%)	further results
OC[C@@H](O)[C@H](O)[C@@H](O)CO [Xylitol, xylitol, reference compound]	–	–	–	–	Nombre de cellules par champ (Staphylococcus aureus; final concentration 0,5%): 91 ± 6; inhibition de l'adhésion (% par rapport au témoin eau) (Staphylococcus aureus; final concentration 0,5%): 8%; effet inhibiteur sur l'adhésion de S. aureus sur les cornéocytes (S. aureus; final concentration 0,5%): ~20%; Inhibition de l'adhésion de S. aureus (%) Essai 1 (S. aureus; final concentration 0,5%): 21,0%; Inhibition de l'adhésion de S. aureus (%) Essai 2 (S. aureus; final concentration 0,5%): 20,2%
monolaurate de sorbitan ethoxylé [Polysorbate 20]	résultats très satisfaisants	57%	–	–	–
monostéarate de sorbitan polyoxyethylène 20 [Polysorbate 60]	résultats très satisfaisants	39,8%	≥ 50	54%	–
sucrose laurate monoester [reference compound]	augmentation significative de l'adhésion	-22.8%	–	–	–
sucrose monostéarate [Sucrostéarate HLB 16]	–	–	≥ 50	57,0%	Nombre de cellules par champ (Staphylococcus aureus; final concentration 1%): 12 ± 1; inhibition de l'adhésion (% par rapport au témoin eau) (Staphylococcus aureus; final concentration 1%): 88%; inhibition de l'adhésion de S. aureus à la surface des lames de verre (Staphylococcus aureus; text conclusion in words, 1%): forte inhibition; Inhibition de l'adhésion de S. aureus (%) Essai 2 (S. aureus; final concentration 1%): 49,6%

— patent EP3246013A1, “INHIBITION OF THE ADHESION OF MICROORGANISMS PATHOGENATED BY A STEARATE AND/OR SORBITAN SUCROSE IN THE COSMETIC TREATMENT OF ATOPIC DERMATITIS” (priority 2012, dated 2014)
